# Measured values as given in PMC6235670, “An mTOR Signaling Modulator Suppressed Heterotopic Ossification of Fibrodysplasia Ossificans Progressiva” (Stem Cell Reports, 2018).
# Legend:
# mTOR signaling (p-S6) = assay: p-S6 western blotting in FOP-iMSCs cultured with 10% FBS; format: cell-based, human; conditions: 100 nM, 2 hr
# Experimental: time point t = 24 h from t = 0 h, and relative cell migration was expressed as the ratio of the absolute cell migrations between the experimental and control groups by using CL-Quant software (Nikon Corp.).
# Quantitative PCR analysis. Total RNA was purified with RNeasy Kit (Qiagen) and treated with DNase -one Kit (Qiagen) to remove genomic DNA. Total RNA (0.3 µg) was reverse transcribed for single-stranded cDNA using random primers and Superscript III reverse transcriptase (Thermo Fisher Scientific) according to the manufacturer’s instructions. Quantitative PCR was performed with Thunderbird SYBR qPCR Mix (TOYOBO) and analyzed with the StepOne real-time PCR system (Applied Biosystems). […]
# Microarray experiments. 2D chondrogenic induction was performed in FOP-iMSCs stimulated with or without 100 ng/mL Activin-A, TAK 165, CP-724714 and Lapatinib. […] Raw CEL files were imported into GeneSpring GX 12.6.1 software (Agilent Technologies), and expression values were calculated with the RMA16 algorithm. […]
# Protein bands were detected with ECL Prime Western Blotting Detection Reagent (GE Healthcare) and visualized using BIO-RAD Molecular Imager® Chemi-DocTM XRS+ with Image LabTM software (Bio-Rad). […]
# GAG value. The GAG content was quantified in pellets with the Blyscan Glycosaminoglycan Assay Kit (Biocolor). The DNA content was quantified using PicoGreen dsDNA Quantitation Kit (Thermo Fisher […]
# ERBB2 = conditions: panel of 300 recombinant protein kinases; ref Anastassiadis et al., 2011; cited from earlier work
compound,measurement,setting,value
"FC(F)(F)c1ccc(/C=C/c2nc(COc3ccc(CCCCn4ccnn4)cc3)co2)cc1 [TAK 165, mubritinib]",p-S6 levels (direct mTOR inhibition),mTOR signaling (p-S6),did not
same,selectivity for ERBB2,ERBB2,highly selective
